Numbered stars: 1 amine (or outer) side, 2 acyl side, 3 side chain; on linkers, the order of the positions; unused ones are H or OH. Bridge positions count the residues as written; N and C are the ends. Square brackets hold non-standard residues; d marks the D form. Peptide text beside a SMILES is read from it. I, II: the chains in the order shown. Actinocin(9to1) = Cc1c2oc3c(C)ccc(C(=O)[*:1])c3nc-2c(C(=O)[*:2])c(N)c1=O; dNMeL = CN[C@H](CC(C)C)C(=O)O; NMeV = CN[C@H](C(=O)O)C(C)C; Hiv = CC(C)[C@H](O)C(=O)O; Sar = CNCC(=O)O
These compounds were tested against IN-GCN2 interaction (6xHis-IN / GST-GCN2) (UniProt P04585+Q9P2K8) (assay: biochemical). Conditions: screen, single dose 100 µM, single replicate; residual AlphaLISA signal normalized to DMSO control.
IN-GCN2 interaction (6xHis-IN / GST-GCN2), sequence (Q9P2K8 192-1024, other chains not shown): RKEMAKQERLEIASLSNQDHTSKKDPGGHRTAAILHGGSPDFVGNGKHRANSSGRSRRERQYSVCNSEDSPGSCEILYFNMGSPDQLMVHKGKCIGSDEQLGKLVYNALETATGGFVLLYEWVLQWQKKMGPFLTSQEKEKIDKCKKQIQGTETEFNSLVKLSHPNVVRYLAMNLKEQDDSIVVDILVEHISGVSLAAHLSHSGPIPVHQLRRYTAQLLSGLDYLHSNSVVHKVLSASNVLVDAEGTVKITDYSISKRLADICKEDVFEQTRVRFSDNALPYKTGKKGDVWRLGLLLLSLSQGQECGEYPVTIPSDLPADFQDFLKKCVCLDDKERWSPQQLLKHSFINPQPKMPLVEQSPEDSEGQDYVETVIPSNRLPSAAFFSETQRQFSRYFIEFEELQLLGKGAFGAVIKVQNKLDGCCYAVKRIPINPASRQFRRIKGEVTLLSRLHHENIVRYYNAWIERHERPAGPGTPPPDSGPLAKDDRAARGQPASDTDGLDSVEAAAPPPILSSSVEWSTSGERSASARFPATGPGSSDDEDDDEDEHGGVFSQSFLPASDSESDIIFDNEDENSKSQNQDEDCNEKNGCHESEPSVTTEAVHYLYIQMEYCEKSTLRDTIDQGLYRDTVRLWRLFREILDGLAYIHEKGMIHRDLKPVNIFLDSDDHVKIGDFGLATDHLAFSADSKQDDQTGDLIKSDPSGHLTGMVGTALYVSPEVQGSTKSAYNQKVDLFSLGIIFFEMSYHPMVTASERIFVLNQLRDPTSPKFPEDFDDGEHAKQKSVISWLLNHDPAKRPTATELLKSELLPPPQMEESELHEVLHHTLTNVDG
Assay type: binding, HIV-1 IN; human GCN2

| SMILES | IN-GCN2 interaction (%) |
| --- | --- |
| Cc1c2oc3c(C)ccc(C(=O)N[C@@H]4C(=O)N[C@H](C(C)C)C(=O)N5CCC[C@H]5C(=O)N(C)CC(=O)N(C)[C@@H](C(C)C)C(=O)O[C@@H]4C)c3nc-2c(C(=O)N[C@@H]2C(=O)N[C@H](C(C)C)C(=O)N3CCC[C@H]3C(=O)N(C)CC(=O)N(C)[C@@H](C(C)C)C(=O)O[C@@H]2C)c(N)c1=O [NSC3053] (I: T[dV]P[Sar][NMeV] / II: T[dV]P[Sar][NMeV]; ester I:1-I:C, II:1-II:C; linker I:N-II:N via Actinocin(9to1)) | 121.53 |
| C[C@]12CCC(=O)[C@](C)(CO)[C@@H]1CC[C@@]13C[C@@H](CC[C@@H]12)[C@@H](C(=O)O)C3 [NSC83439] | 107.59 |
| COC1[C@H](O)[C@@H](O)C(O)[C@H](O)[C@H]1O (stereo partly drawn) [NSC26254] | 90.47 |
| CCC1CN(C)C2Cc3c([nH]c4ccccc34)C(=O)CC1C2C(=O)OC (stereo not drawn) [NSC108088] | 78.52 |
| CC1=CC(=O)[C@@H]2C[C@H]1C2(C)C [NSC6832] | 90.37 |
| Nc1nc2c(c(=O)[nH]1)N(C=O)C(CNc1ccc(C(=O)N[C@@H](CCC(=O)O)C(=O)O)cc1)CN2 (stereo partly drawn) [NSC3590] | 94.67 |
| CC(C)C[C@@H]1NC(=O)[C@H](C(C)C)NC(=O)[C@H](C(C)C)OC(=O)[C@@H](CC(C)C)N(C)C(=O)[C@@H](C(C)C)NC(=O)[C@H](C(C)C)OC1=O [NSC122224] (cyclo([Hiv]VL[Hiv][dV][dNMeL])) | 110.56 |
| COc1ccc2c(c1O)-c1cccc3c1[C@@H](C2)N(C)CC3 [NSC785152] | 66.28 |
| NC(=O)NC1NC(=O)NC1=O (stereo not drawn) [NSC7606] | 88.72 |
| C[C@H](CCC(=O)O)[C@H]1CC[C@H]2[C@@H]3CC[C@@H]4C[C@H](O)CC[C@]4(C)[C@H]3C[C@H](O)[C@]12C [NSC8797] | 85.28 |
| COc1cc2c3c(c1O)C1(C=CC(=O)C=C1)C[C@@H]3N(C)CC2 [NSC785166] | 94.62 |
| CC1(C)O[C@H]2CC(=O)OC[C@]23[C@H]2CC[C@@]4(C)[C@H](c5ccoc5)OC(=O)[C@H]5O[C@]54[C@]2(C)C(=O)C[C@@H]13 [NSC36508] | 112.07 |
| COc1c2c(c3c(c1CCC(=O)O)OC(C)(C)C=C3)OC(C)(C)C=C2 [NSC83436] | 100.62 |
| CCN1C[C@]2(COC)[C@H](O)C[C@H](OC)[C@@]34[C@@H]5C[C@@]6(O)[C@H](OC(=O)c7ccccc7)[C@@H]5[C@@](OC(C)=O)([C@@H]([C@H](OC)[C@H]23)[C@@H]14)[C@@H](O)[C@@H]6OC [NSC56464] | 148.00 |
| COc1cc2c(c(OC)c1O)-c1ccc(OC)c(=O)cc1[C@@H](NC(=O)C(F)(F)F)CC2 [NSC335989] | 89.57 |
| COc1cccc2c1C1COC3C4CC(C(=O)O)C(C(C2)N13)N4C.O=C(O)CC(O)(CC(=O)O)C(=O)O (stereo not drawn) [NSC601422] | 152.09 |
| CC[C@H](C)[C@@H]([C@@H](CC(=O)N1CCC[C@H]1[C@H](OC)[C@@H](C)C(=O)N[C@@H](Cc1ccccc1)c1nccs1)OC)N(C)C(=O)[C@@H](NC(=O)[C@H](C(C)C)N(C)C)C(C)C [NSC376128] | 96.15 |
| Oc1ccc2c(c1)OC[C@]1(O)Cc3cc(O)c(O)cc3[C@H]21 [NSC8661] | 86.68 |
| CO[C@H]1/C=C/O[C@@]2(C)Oc3c(C)c(O)c4c(O)c(cc(O)c4c3C2=O)NC(=O)/C(C)=C\C=C\[C@H](C)[C@H](O)[C@@H](C)[C@@H](O)[C@@H](C)[C@H](OC(C)=O)[C@@H]1C [NSC133100] | 111.79 |
| Oc1ccc(Cc2nccc3cc(O)c(O)cc23)cc1O [NSC99799] | 58.53 |
| CCCCCC[C@@H](O)C/C=C\CCCCCCCC(=O)[O-].[Na+] [NSC2835] | 143.81 |
| COc1cc2c(cc1OC)CN1CCc3cc(OC)c(OC)cc3C1C2 (stereo not drawn) [NSC10105] | 96.86 |

| SMILES | IN-GCN2 interaction (%) |
| --- | --- |
| C=C1C(=O)O[C@@H]2[C@H]1CC[C@H](C)[C@]1(O)C=CC(=O)[C@@]21C [NSC85239] | 120.23 |
| N#C[C@H](O[C@@H]1O[C@H](CO[C@@H]2O[C@H](CO)[C@@H](O)[C@H](O)[C@H]2O)[C@@H](O)[C@H](O)[C@H]1O)c1ccccc1 [NSC15780] | 121.81 |
| CCOc1ccc2c(c1)-c1c(O)c(OC)cc3c1[C@H](C2)N(C)CC3 [NSC785169] | 40.02 |
| COc1cc2cc(c1Cl)N(C)C(=O)C[C@H](OC(=O)C(C)C)[C@]1(C)O[C@H]1[C@H](C)[C@@H]1C[C@@](O)(NC(=O)O1)[C@H](OC)/C=C/C=C(\C)C2 [NSC292222] | 93.28 |
| COc1cc2c(cc1OC)C(O)C(O)(CO)C(C(=O)O)C2c1cc(OC)c(OC)c(OC)c1 (stereo not drawn) [NSC50131] | 78.06 |
| C=C1C(=O)OCC2C(C(=O)O)=CC3C(C)C(C)=CC123 (stereo not drawn) [NSC145150] | 111.51 |
| COc1cc(O)c(C(C)=O)c2c1C=CC(C)(C)O2 [NSC14135] | 87.24 |
| CC1CC(O)C2C3(C)CCCC2(COC3=O)C12CCC1(CCOC1=O)O2 (stereo not drawn) [NSC250429] | 134.45 |
| CC(C)=CCc1ccc(O)c(=O)cc1C(C)C [NSC43339] | 101.87 |
| COC1=C2C[C@@H](C)C[C@H](OC)[C@H](O)[C@@H](C)/C=C(\C)[C@H](OC(N)=O)[C@@H](OC)/C=C\C=C(/C)C(=O)NC(=CC1=O)C2=O [NSC122750] | 116.21 |
| COc1cc(O[C@@H]2O[C@H](CO)[C@@H](O)[C@H](O)[C@H]2O)c2c(c1)O[C@H](c1ccc(O)cc1)CC2=O [NSC407308] | 92.73 |
| CO[C@@H]1[C@H](O)CC[C@]2(CO2)[C@H]1[C@@]1(C)O[C@@H]1CC=C(C)C [NSC9665] | 118.70 |
| O=c1[nH]c(=O)c2[nH]cnc2[nH]1 [NSC14664] | 105.35 |
| C=C[C@]1(C)C=C2CC[C@@H]3[C@](C)(CCC[C@@]3(C)C(=O)O)[C@H]2CC1 [NSC6435] | 127.66 |
| COc1cc([C@@H]2c3cc4c(cc3C[C@H]3COC(=O)[C@@H]32)OCO4)cc(OC)c1OC [NSC403148] | 91.16 |
| N=C(N)CCNC(=O)C1CCC(N)=N1 (stereo not drawn) [NSC72942] | 100.21 |
| C[C@@H]1O[C@@H](O[C@@H]2C=C3CC[C@@H]4[C@H](CC[C@]5(C)[C@@H](c6ccc(=O)oc6)CC[C@]45O)[C@@]3(C)CC2)[C@H](O)[C@H](O)[C@H]1O [NSC7521] | 97.97 |
| COc1c(OC)c2c3c(nccc3c1OC)-c1cc(=O)c(OC)ccc1-2 [NSC785144] | 14.73 |
| COC1C(C)OC(OC2CC(C)(O)Cc3cc4c(c(O)c32)C(=O)c2c(O)cc3c(c2C4=O)OC2OC3(C)C(O)C(N(C)C)C2O)C(OC)C1(C)OC (stereo not drawn) [NSC265450] | 99.51 |
| C[C@@H]1O[C@@H](O[C@@H]2C=C3CC[C@@H]4[C@H](CC[C@]5(C)[C@@H](c6ccc(=O)oc6)CC[C@]45O)[C@@]3(C)CC2)[C@H](O)[C@H](O)[C@H]1O[C@@H]1O[C@H](CO)[C@@H](O)[C@H](O)[C@H]1O [NSC7525] | 99.88 |
| CC1(C)C(CC(=O)O)CC1C(=O)O (stereo not drawn) [NSC2802] | 86.94 |
| O=c1oc2c(O)c(O)cc3c(=O)oc4c(O)c(O)cc1c4c23 [NSC407286] | 49.11 |

Same assay, conditions: screen, single dose 100 µM, single replicate; residual AlphaLISA signal normalized to DMSO control; listed as 1115

| SMILES | IN-GCN2 interaction (%) |
| --- | --- |
| O=C(O)C1(O)C[C@@H](O)C(O)[C@H](O)C1 (stereo partly drawn) [NSC1115] | 83.40 |

Source: publication PMC12390684 (Viruses, 2025)
